This note sets out measurements from paper PMC10518255, “A first-in-class pan-lysyl oxidase inhibitor impairs stromal remodeling and enhances gemcitabine response and survival in pancreatic cancer” (Nature Cancer, 2023).

Broadly, the IC50 is the midpoint of a concentration-inhibition curve.

For one assay, the target named is T1, Recombinant LOXL-3 (Homo sapiens, UniProt P58215).
T1 sequence (P58215 26-753): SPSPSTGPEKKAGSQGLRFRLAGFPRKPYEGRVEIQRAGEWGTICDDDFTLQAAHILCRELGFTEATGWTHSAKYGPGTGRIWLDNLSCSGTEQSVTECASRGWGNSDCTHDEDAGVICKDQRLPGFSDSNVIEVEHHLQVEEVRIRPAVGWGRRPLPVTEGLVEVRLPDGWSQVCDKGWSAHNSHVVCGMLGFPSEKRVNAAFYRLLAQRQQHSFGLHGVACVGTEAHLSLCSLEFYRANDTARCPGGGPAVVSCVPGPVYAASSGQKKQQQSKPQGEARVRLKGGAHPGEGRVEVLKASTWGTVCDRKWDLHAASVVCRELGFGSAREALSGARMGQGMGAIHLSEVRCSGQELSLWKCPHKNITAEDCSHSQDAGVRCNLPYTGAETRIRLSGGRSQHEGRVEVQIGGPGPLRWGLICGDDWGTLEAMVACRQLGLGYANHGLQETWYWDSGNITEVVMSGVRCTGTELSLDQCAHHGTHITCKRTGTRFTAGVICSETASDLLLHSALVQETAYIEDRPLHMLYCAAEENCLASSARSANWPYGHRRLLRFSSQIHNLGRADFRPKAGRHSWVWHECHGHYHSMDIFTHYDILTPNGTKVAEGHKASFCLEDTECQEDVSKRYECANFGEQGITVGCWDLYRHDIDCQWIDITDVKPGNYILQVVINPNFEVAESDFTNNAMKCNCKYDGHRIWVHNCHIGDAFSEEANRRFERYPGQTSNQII
In words: Lysyl oxidase enzymatic activity, fluorescence-based assay, IC50. The class given is biochemical. An excerpt: (§1) Data are presented as mean ± s.d. […] Data presented as mean ± s.d. […] Source data TEXT PRINTED IN THE PICTURE: (b) PXS-5505: Recombinant DAO IC50 (nM): >30,000; Recombinant SSAO/VAP1 IC50 (nM): >30,000; Recombinant MAO-A IC50 (nM): >30,000; Recombinant MAO-B IC50 (nM): >30,000 | (f) PXS-5505: Fibroblast LOX IC50 (nM): 4,930; Recombinant LOXL-1 IC50 (nM): 1,590; Recombinant LOXL-2 IC50 (nM): 570; Recombinant LOXL-3 IC50 (nM): 1,800; Recombinant LOXL-4 IC50 (nM): 190
(§2) In characterizing PXS-5505, the half-maximum inhibitory concentration (IC50) values for each of the lysyl oxidase family members were determined by measuring enzymatic activity using a fluorescence-based assay.
(§3) Data presented as mean values +/− SD. f. […] Data presented as mean values +/− SD. […] Data presented as mean values +/− SD. […] Data presented as mean values +/− SD. Ordinary one-way ANOVA for multiple comparison test performed. Source data

For the next assay, the target named is T2, Fibroblast LOX (Homo sapiens, UniProt P28300).
T2 construct: endogenous in cells
T2 sequence (P28300 169-417): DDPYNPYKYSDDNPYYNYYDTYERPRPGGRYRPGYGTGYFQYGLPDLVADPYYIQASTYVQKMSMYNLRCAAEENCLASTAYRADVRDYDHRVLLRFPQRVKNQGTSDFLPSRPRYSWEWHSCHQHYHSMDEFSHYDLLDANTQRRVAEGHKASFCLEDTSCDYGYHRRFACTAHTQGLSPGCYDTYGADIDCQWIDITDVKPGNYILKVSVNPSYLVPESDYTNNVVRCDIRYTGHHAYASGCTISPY
The description is as above. It is filed as biochemical.
Text: as §1, §2, §3

The mark [1] stands for this setting: log(Concentration) -4.52288, replicates, 30 µM.

Where “and” joins values, the source holds several entries; their conditions need not be identical. Equal values may be shown once.

With `Cl.Cl.NC/C=C(\F)CS(=O)(=O)c1cccc2cccnc12.O` [PXS-5505, (Z)-3-fluoro-4-(quinolin-8-ylsulfonyl)but-2-en-1-amine dihydrochloride monohydrate], the results for the IC50 on Recombinant LOXL-3 and at Fibroblast LOX were 1800 nM and 4.93 µM, respectively. Besides, the “LOXL3 activity, IC50 determination curve” value at Recombinant LOXL-3 (setting [1]) was 0.995 and -0.1448 and -2.1827; at Recombinant LOXL-3 (log(Concentration) -5, replicates, 10 µM), 5.702; at Recombinant LOXL-3 (log(Concentration) -5.47712, replicates, 3.333 µM), 36.152 and 26.2163; on Recombinant LOXL-3 (log(Concentration) -5.95424, replicates, 1.111 µM), 67.7528 and 54.7261; on Recombinant LOXL-3 (log(Concentration) -6.43136, replicates, 0.3704 µM), 85.8582 and 75.7761; on Recombinant LOXL-3 (log(Concentration) -6.90849, replicates, 0.1235 µM), 94.2403 and 83.1634. In addition, the “LOXL3 activity, IC50 determination curve” value at Recombinant LOXL-3 (log(Concentration) -7.38561, replicates, 0.04115 µM) was 97.9203 and 84.9527; at Recombinant LOXL-3 (log(Concentration) -7.86273, replicates, 0.01372 µM) it was 99.768 and 85.7835; on Recombinant LOXL-3 (log(Concentration) -8.33985, replicates, 0.004572 µM) it was 101.158 and 89.5879; at Recombinant LOXL-3 (log(Concentration) -8.81697, replicates, 0.001524 µM) it was 100.452 and 87.3896; at Recombinant LOXL-3 (log(Concentration) -9.29409, replicates, 0.000508 µM) it was 100.732 and 88.8381. At Recombinant LOXL-3 (read-out: LOXL3 activity, IC50 determination curve, log(Concentration) -5, replicates), the activity at 10 µM is 7.74%. In addition, the activity at 3.333 µM at Recombinant LOXL-3 (read-out: LOXL3 activity, IC50 determination curve, log(Concentration) -5.47712, replicates) worked out at 30.5%. Besides, the activity at 1.111 µM at Recombinant LOXL-3 (read-out: LOXL3 activity, IC50 determination curve, log(Concentration) -5.95424, replicates) turned out to be 62.6%. In addition, on Recombinant LOXL-3 (read-out: LOXL3 activity, IC50 determination curve, log(Concentration) -6.43136, replicates), the activity at 0.3704 µM worked out at 82.5%. Also, the activity at 0.1235 µM at Recombinant LOXL-3 (read-out: LOXL3 activity, IC50 determination curve, log(Concentration) -6.90849, replicates) is 98.2%. The activity at 0.04115 µM at Recombinant LOXL-3 (read-out: LOXL3 activity, IC50 determination curve, log(Concentration) -7.38561, replicates) came to 96.9%. Moreover, the activity at 0.01372 µM on Recombinant LOXL-3 (read-out: LOXL3 activity, IC50 determination curve, log(Concentration) -7.86273, replicates) stood at 96.8%. Also, the activity at 0.004572 µM at Recombinant LOXL-3 (read-out: LOXL3 activity, IC50 determination curve, log(Concentration) -8.33985, replicates) was determined as 99.1%. In addition, on Recombinant LOXL-3 (read-out: LOXL3 activity, IC50 determination curve, log(Concentration) -8.81697, replicates), the activity at 0.001524 µM turned out to be 100%. In addition, the activity at 0.000508 µM on Recombinant LOXL-3 (read-out: LOXL3 activity, IC50 determination curve, log(Concentration) -9.29409, replicates) worked out at 99.7%. In addition, the “LOX activity, IC50 determination curve” value at Fibroblast LOX (setting [1]) is -1.8303 and 0.6579 and 0.3247.
